Results from paper PMC8748444, “Hypocrates is a genetically encoded fluorescent biosensor for (pseudo)hypohalous acids and their derivatives” (Nature Communications, 2022).

Columns and labels:
[1] = target: T1, Hypocrates (NemR-cpYFP biosensor) (Escherichia coli, UniProt P67430, C21S/C98S/C116S/C149S/C153S, form not given); assay: fluorescence titration, Ex500/Ex417 ratio; assay type: binding; settings: covalent (oxidation); 100 mM sodium phosphate pH 7.4, 25 °C; 0.5 µM protein
T1 construct: cpYFP (from HyPer-2) inserted with SAG/GT linkers into flexible loop of NemR^C106; pQE30; with Green fluorescent protein (circularly permuted yellow variant, cpYFP)

NemR^C106 [2] = target: T2, NemR^C106 (Escherichia coli, UniProt P67430, C21S/C98S/C116S/C149S/C153S); assay: intrinsic Trp fluorescence shift; assay type: binding; settings: covalent (oxidation); 2 µM protein, 50 µM oxidant; 100 mM sodium phosphate pH 7.4
T2 construct: pET-21b(+) in E. coli BL21 (DE3); Ni-Sepharose purified; DTT-reduced before assay; NemR homo-dimer

[3] = target: T3, Hypocrates (NemR-cpYFP biosensor) (Escherichia coli, UniProt P67430, C21S/C98S/C106S/C116S/C149S/C153S, form not given); assay: fluorescence excitation spectra in E. coli cells expressing the sensor; assay type: cell-based; settings: HypocratesCS, key Cys replaced; 80 µM oxidant; PBS pH 7.4
T3 construct: cpYFP (from HyPer-2) inserted with SAG/GT linkers into flexible loop of NemR^C106; pQE30; with Green fluorescent protein (circularly permuted yellow variant, cpYFP)

[4] = target: T4, Hypocrates (NemR-cpYFP biosensor) (Escherichia coli, UniProt P67430, C21S/C98S/C116S/C149S/C153S/K175A, form not given); assay: as above; assay type: cell-based; settings: HypocratesKA; 80 µM oxidant; PBS pH 7.4
T4 construct: cpYFP (from HyPer-2) inserted with SAG/GT linkers into flexible loop of NemR^C106; pQE30; with Green fluorescent protein (circularly permuted yellow variant, cpYFP)

[5] = target: T1, Hypocrates (NemR-cpYFP biosensor); assay: stopped-flow, cpYFP fluorescence (λex […] nm); assay type: binding; settings: covalent (oxidation, chlorination); 100 mM sodium phosphate pH 7.4, 25 °C; 0.5 µM protein
NemR^C106 [6] = target: T2, NemR^C106; assay: stopped-flow, intrinsic Trp fluorescence; assay type: binding; settings: covalent (oxidation); 100 mM sodium phosphate pH 7.4, 25 °C; 1 µM protein
[7] = target: Hypocrates (NemR-cpYFP biosensor) (E. coli); assay: SEC; Superdex 200 Increase 10/300 GL, 100 mM sodium phosphate buffer pH 7.4, 24 °C, 0.75 ml/min; samples incubated with 5 mM DTT or with N-chlorotaurine at 1:20 protein/oxidant ratio for 5 min before injection; absorbance at 415 nm; column calibrated with mass standards

T1 sequence (P67430 whole entry C21S/C98S/C116S/C149S/C153S, form open): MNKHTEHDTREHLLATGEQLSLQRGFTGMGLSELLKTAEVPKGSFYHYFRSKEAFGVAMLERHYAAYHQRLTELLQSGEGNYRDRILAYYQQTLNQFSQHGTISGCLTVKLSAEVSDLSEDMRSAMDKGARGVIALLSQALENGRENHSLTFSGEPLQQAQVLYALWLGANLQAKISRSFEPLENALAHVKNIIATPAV
T2 sequence (P67430 whole entry C21S/C98S/C116S/C149S/C153S): as the sequence (P67430 whole entry C21S/C98S/C116S/C149S/C153S, form open) above
T3 sequence (P67430 whole entry C21S/C98S/C106S/C116S/C149S/C153S, form open): as the sequence (P67430 whole entry C21S/C98S/C116S/C149S/C153S, form open) above, with C106S counted along it
T4 sequence (P67430 whole entry C21S/C98S/C116S/C149S/C153S/K175A, form open): as the sequence (P67430 whole entry C21S/C98S/C116S/C149S/C153S, form open) above, with K175A counted along it

## N#CSO [HOSCN]
[1]
  sensitivity (slope of initial linear part): ~ 1.11 µM^−1

## OBr [NaOBr]
NemR^C106 [2]
  intrinsic Trp fluorescence shift: The oxidants NaOCl, NCT, and NaOBr caused Trp-fluorescence shifts

## OCl [NaOCl]
[3]
  no response: E. coli cells expressing HypocratesCS did not respond anymore to the addition of NaOCl
[4]
  fluorescence excitation spectra in E. coli cells expressing the sensor: we found that HypocratesKA is still highly sensitive to NaOCl (Fig. 1i)
[5]
  second-order rate constant (kon): (1.4 ± 0.056) × 10^6 M^−1s^−1
NemR^C106 [6]
  second-order rate constant: ~ 3.0 × 10^5 M^−1s^−1

## Hypocrates (NemR-cpYFP biosensor)
[7]
  stoichiometry N: 2
